From publication PMC4601051, “Discovery of Indoline-2-carboxamide Derivatives as a New Class of Brain-Penetrant Inhibitors of Trypanosoma brucei” (Journal of Medicinal Chemistry, 2015)

Tested on: not listed separately
Experiment: in vitro
Details: human, MRC-5 fibroblasts
Procedure: Proliferation assays using bloodstream form T. brucei brucei and human MRC-5 fibroblasts were conducted using a modification of the cell viability assay as previously reported.[27],[39]
MRC-5 cells (2000 cells per well) were seeded in 200 μL of DMEM, 10% FCS, and allowed to adhere overnight. One microliter of test compound was added to each well on the day of assay initiation.
The final DMSO level was 0.5% in all cases.

SMILES	EC50 at 69 h
CNC(=O)C1Cc2ccccc2N1C(=O)Cc1cccs1 (stereo not drawn) [Compound 20]	> 50000 nM
CNC(=O)C1Cc2cc(F)cc(F)c2N1C(=O)COc1ccc(F)cc1 (stereo not drawn) [Compound 58]	> 50000 nM
CNC(=O)[C@H]1Cc2cc(F)ccc2N1C(=O)COc1ccc(F)cc1 [Compound 56]	> 50000 nM
CNC(=O)C1Cc2ccccc2N1C(=O)Cc1ccc(C(F)(F)F)cc1 (stereo not drawn) [Compound 42]	> 50000 nM
CNC(=O)C1Cc2ccccc2N1C(=O)Cc1ccc(C(C)C)cc1 (stereo not drawn) [Compound 41]	> 50000 nM
CCOc1ccc(OCC(=O)N2c3ccccc3CC2C(=O)NC)cc1 (stereo not drawn) [Compound 17]	> 50000 nM
CNC(=O)[C@H]1Cc2ccccc2N1C(=O)COc1ccc(F)cc1 [Compound 36]	> 50000 nM
Cc1cccc(OCC(=O)N2c3ccccc3CC2C(N)=O)c1 (stereo not drawn) [Compound 24]	> 50000 nM
CNC(=O)C1Cc2cc(Br)ccc2N1C(=O)COc1ccc(F)cc1 (stereo not drawn) [Compound 60]	> 50000 nM
CNC(=O)C1Cc2ccccc2N1C(=O)COc1ccc2ccccc2c1 (stereo not drawn) [Compound 18]	> 50000 nM
CCNC(=O)C1Cc2ccccc2N1C(=O)COc1ccc(Cl)cc1 (stereo not drawn) [Compound 49]	> 50000 nM
CNC(=O)C1Cc2cc(F)ccc2N1C(=O)COc1ccc(Cl)cc1 (stereo not drawn) [Compound 54]	> 50000 nM
CNC(=O)[C@H]1Cc2ccccc2N1C(=O)COc1ccc(F)c(F)c1 [Compound 37]	> 50000 nM
CNC(=O)C1Cc2ccccc2N1C(=O)COc1ccccc1 (stereo not drawn) [Compound 31]	> 50000 nM
O=C(NC1CC1)C1Cc2ccccc2N1C(=O)COc1ccc(Cl)cc1 (stereo not drawn) [Compound 51]	> 50000 nM
CN(C)C(=O)C1Cc2ccccc2N1C(=O)COc1ccc(Cl)cc1 (stereo not drawn) [Compound 48]	> 50000 nM
CNC(=O)C1N(C(=O)COc2ccc(Cl)cc2)c2ccccc2C1(C)C (stereo not drawn) [Compound 63]	> 50000 nM
CNC(=O)C1Cc2ccccc2N1C(=O)COCc1ccccc1 (stereo not drawn) [Compound 28]	> 50000 nM
CNC(=O)C1Cc2ccccc2N1C(=O)Cc1ccc(Cl)cc1 (stereo not drawn) [Compound 40]	> 50000 nM
CNC(=O)C1Cc2cc(-c3ccccc3)ccc2N1C(=O)COc1ccc(F)cc1 (stereo not drawn) [Compound 61]	> 50000 nM

Tested on: not listed separately
Experiment: Microsomal intrinsic clearance (Clint), mouse
Format: in vitro ADME
Details: mouse liver microsomes, 0.5 μM compound
Procedure: (§1) Each test compound (0.5 μM) was incubated with pooled female CDI mouse liver microsomes, pooled male Sprague–Dawley rat microsomes, or pooled mixed gender human liver microsomes (Tebu-Bio, UK; 0.5 mg/mL 50 mM potassium phosphate buffer, pH 7.4) and the reaction started with addition of excess NADPH (8 mg/mL, 50 mM potassium phosphate buffer, pH 7.4). Immediately, at time zero, then at 3, 6, 9, 15, and 30 min, an aliquot (50 μL) of the incubation mixture was removed and mixed with acetonitrile (100 μL) to stop the reaction. Internal standard was added to all samples, and the samples were centrifuged at 1825g for 10 min to sediment precipitated protein. The plates were then sealed prior to UPLC/MS/MS analysis using a Quattro Premier XE (Waters Corporation, USA).
(§2) XLfit (IDBS, UK) was used to calculate the exponential decay and consequently the rate constant (k) from the ratio of peak area of test compound to internal standard at each time point.

SMILES	mouse microsomal intrinsic clearance
CNC(=O)C1Cc2cc(F)cc(F)c2N1C(=O)COc1ccc(F)cc1 (stereo not drawn) [Compound 58]	2.9 mL min^–1 g^–1
CNC(=O)C1Cc2ccccc2N1C(=O)Cc1ccc(C(F)(F)F)cc1 (stereo not drawn) [Compound 42]	3.0 mL min^–1 g^–1
CNC(=O)C1Cc2ccccc2N1C(=O)Cc1ccc(C(C)C)cc1 (stereo not drawn) [Compound 41]	35 mL min^–1 g^–1
CNC(=O)[C@H]1Cc2ccccc2N1C(=O)COc1ccc(F)cc1 [Compound 36]	1.2 mL min^–1 g^–1
CNC(=O)C1Cc2cc(Br)ccc2N1C(=O)COc1ccc(F)cc1 (stereo not drawn) [Compound 60]	4.6 mL min^–1 g^–1
CCNC(=O)C1Cc2ccccc2N1C(=O)COc1ccc(Cl)cc1 (stereo not drawn) [Compound 49]	6.2 mL min^–1 g^–1
CNC(=O)C1Cc2cc(F)ccc2N1C(=O)COc1ccc(Cl)cc1 (stereo not drawn) [Compound 54]	2.8 mL min^–1 g^–1
CNC(=O)[C@H]1Cc2ccccc2N1C(=O)COc1ccc(F)c(F)c1 [Compound 37]	3.2 mL min^–1 g^–1
CNC(=O)C1Cc2ccccc2N1C(=O)COc1ccccc1 (stereo not drawn) [Compound 31]	6.9 mL min^–1 g^–1
O=C(NC1CC1)C1Cc2ccccc2N1C(=O)COc1ccc(Cl)cc1 (stereo not drawn) [Compound 51]	5.5 mL min^–1 g^–1
CNC(=O)C1N(C(=O)COc2ccc(Cl)cc2)c2ccccc2C1(C)C (stereo not drawn) [Compound 63]	14 mL min^–1 g^–1
CNC(=O)C1Cc2ccccc2N1C(=O)Cc1ccc(Cl)cc1 (stereo not drawn) [Compound 40]	4.4 mL min^–1 g^–1

Tested on: bloodstream form T. brucei brucei
Experiment: T. b. brucei whole cell parasite (trypanosome growth) assay
Format: cell-based, Trypanosoma brucei brucei
Details: T. b. brucei EC50, compared to 1 (parent)
Procedure: This was conducted as previously described.[27] Cell culture plates were stamped with 1 μL of an appropriate stock concentration of test compound, followed by addition of 200 μL of trypanosome culture (HMI9-T, 10% FCS) to each well at a density of 2000 cells per well (except column 12 receiving media only). […] Potency was carried out using 10-point dose–response curves.

SMILES	loss in potency
O=C(NC1CC1)C1Cc2ccccc2N1C(=O)COc1ccc(Cl)cc1 (stereo not drawn) [Compound 51]	~14 fold
CN(C)C(=O)C1Cc2ccccc2N1C(=O)COc1ccc(Cl)cc1 (stereo not drawn) [Compound 48]	200 fold
CNC(=O)C1N(C(=O)COc2ccc(Cl)cc2)c2ccccc2C1(C)C (stereo not drawn) [Compound 63]	~34 fold
CNC(=O)C1Cc2ccccc2N1C(=O)COCc1ccccc1 (stereo not drawn) [Compound 28]	~70 fold
CNC(=O)C1Cc2cc(-c3ccccc3)ccc2N1C(=O)COc1ccc(F)cc1 (stereo not drawn) [Compound 61]	~10 fold

Same assay, conditions: T. b. brucei EC50, compared to 21

SMILES	improvement in activity
CNC(=O)C1Cc2ccccc2N1C(=O)Cc1ccc(Cl)cc1 (stereo not drawn) [Compound 40]	approximately 3 fold

Same assay, conditions: Trypanosoma brucei, mean of two or more determinations; 69 h + 4 h resazurin; read-out: T. b. brucei EC50

SMILES	EC50
CNC(=O)C1Cc2ccccc2N1C(=O)Cc1cccs1 (stereo not drawn) [Compound 20]	660 nM
CNC(=O)C1Cc2cc(F)cc(F)c2N1C(=O)COc1ccc(F)cc1 (stereo not drawn) [Compound 58]	80 nM
CNC(=O)[C@H]1Cc2cc(F)ccc2N1C(=O)COc1ccc(F)cc1 [Compound 56]	40 nM
CNC(=O)C1Cc2ccccc2N1C(=O)Cc1ccc(C(F)(F)F)cc1 (stereo not drawn) [Compound 42]	100 nM
CNC(=O)C1Cc2ccccc2N1C(=O)Cc1ccc(C(C)C)cc1 (stereo not drawn) [Compound 41]	770 nM
CCOc1ccc(OCC(=O)N2c3ccccc3CC2C(=O)NC)cc1 (stereo not drawn) [Compound 17]	310 nM
CNC(=O)[C@H]1Cc2ccccc2N1C(=O)COc1ccc(F)cc1 [Compound 36]	40 nM
Cc1cccc(OCC(=O)N2c3ccccc3CC2C(N)=O)c1 (stereo not drawn) [Compound 24]	13000 nM
CNC(=O)C1Cc2cc(Br)ccc2N1C(=O)COc1ccc(F)cc1 (stereo not drawn) [Compound 60]	80 nM
CNC(=O)C1Cc2ccccc2N1C(=O)COc1ccc2ccccc2c1 (stereo not drawn) [Compound 18]	2900 nM
CCNC(=O)C1Cc2ccccc2N1C(=O)COc1ccc(Cl)cc1 (stereo not drawn) [Compound 49]	90 nM
CNC(=O)C1Cc2cc(F)ccc2N1C(=O)COc1ccc(Cl)cc1 (stereo not drawn) [Compound 54]	60 nM
CNC(=O)[C@H]1Cc2ccccc2N1C(=O)COc1ccc(F)c(F)c1 [Compound 37]	30 nM
CNC(=O)C1Cc2ccccc2N1C(=O)COc1ccccc1 (stereo not drawn) [Compound 31]	40 nM
O=C(NC1CC1)C1Cc2ccccc2N1C(=O)COc1ccc(Cl)cc1 (stereo not drawn) [Compound 51]	410 nM
CN(C)C(=O)C1Cc2ccccc2N1C(=O)COc1ccc(Cl)cc1 (stereo not drawn) [Compound 48]	5400 nM
CNC(=O)C1N(C(=O)COc2ccc(Cl)cc2)c2ccccc2C1(C)C (stereo not drawn) [Compound 63]	920 nM
CNC(=O)C1Cc2ccccc2N1C(=O)COCc1ccccc1 (stereo not drawn) [Compound 28]	1900 nM
CNC(=O)C1Cc2ccccc2N1C(=O)Cc1ccc(Cl)cc1 (stereo not drawn) [Compound 40]	80 nM
CNC(=O)C1Cc2cc(-c3ccccc3)ccc2N1C(=O)COc1ccc(F)cc1 (stereo not drawn) [Compound 61]	240 nM

Same assay, conditions: mean of two or more determinations; 69 h + 4 h resazurin; read-out: T. b. brucei EC50

SMILES	EC50
CNC(=O)C1Cc2ccccc2N1C(=O)Cc1ccc(C(F)(F)F)cc1 (stereo not drawn) [Compound 42]	110 nM

Tested on: not listed separately
Experiment: Microsomal intrinsic clearance (Clint), human
Format: in vitro ADME
Details: human liver microsomes, 0.5 μM compound
Procedure: as §1, §2

SMILES	microsomal intrinsic clearance, human
CNC(=O)[C@H]1Cc2ccccc2N1C(=O)COc1ccc(F)cc1 [Compound 36]	1.3 mL min^–1 g^–1
CNC(=O)C1Cc2cc(F)ccc2N1C(=O)COc1ccc(Cl)cc1 (stereo not drawn) [Compound 54]	1.6 mL min^–1 g^–1
CNC(=O)C1Cc2ccccc2N1C(=O)COc1ccccc1 (stereo not drawn) [Compound 31]	1.4 mL min^–1 g^–1

Tested on: not listed separately
Experiment: Microsomal intrinsic clearance (Clint), rat
Format: in vitro ADME
Details: rat liver microsomes, 0.5 μM compound
Procedure: as §1, §2

SMILES	microsomal intrinsic clearance, rat
CNC(=O)[C@H]1Cc2ccccc2N1C(=O)COc1ccc(F)cc1 [Compound 36]	4.9 mL min^–1 g^–1
CNC(=O)C1Cc2cc(F)ccc2N1C(=O)COc1ccc(Cl)cc1 (stereo not drawn) [Compound 54]	5.3 mL min^–1 g^–1
CNC(=O)C1Cc2ccccc2N1C(=O)COc1ccccc1 (stereo not drawn) [Compound 31]	9.0 mL min^–1 g^–1
CNC(=O)C1Cc2cc(-c3ccccc3)ccc2N1C(=O)COc1ccc(F)cc1 (stereo not drawn) [Compound 61]	25 mL min^–1 g^–1
